Source: the NIST ThermoML archive (doi:10.1021/je049878m)
Numbers after ± are expanded uncertainties.

Details: Crystal

| SMILES | Normal melting temperature [°C] |
| --- | --- |
| COc1cc(OC)c(C(=O)O)cc1OC [2,4,5-trimethoxybenzoic acid] | 144.8 ± 1 |
| COc1cc(C(=O)O)cc(OC)c1OC [3,4,5-trimethoxybenzoic acid] | 171.4 ± 1 |
| CC(=O)Nc1ccc(C)cc1 [1-acetamido-4-methylbenzene] | 151 ± 1 |

Results, then the compound that gave them:

| Normal melting temperature [°C] | SMILES |
| --- | --- |
| 123.7 ± 1 | Nc1cccc(O)c1 [3-hydroxybenzenamine] |
| 174.5 ± 1 | Nc1ccccc1O [2-hydroxybenzenamine] |
| 109.6 ± 1 | CC(=O)Nc1ccccc1C [o-acetotoluide] |
